Data published in ChEMBL document CHEMBL1157527 (2008).

test system: Candida albicans; assay: Antifungal activity against Candida albicans; assay type: functional; note: unit not given here

SMILES	p(1/MIC)
C[N+](C)(C)[B-](Br)(Br)C#N	3.295
C[N+](C)([BH2-]C#N)C[Si](C)(C)C [(CYANOBORANYLIDENE)DIMETHYL[(TRIMETHYLSILYL)METHYL]AMINE]	3.468
CN(C)c1ccc(-c2nc3cc(NC(=O)OCc4ccccc4)ccc3o2)cc1	2.143
CC(C)C(c1cn(Cc2ccc(Cl)cc2)c2ccccc12)n1ccnc1 (stereo unspecified)	1.138
CC(C)(C)C(c1cn(Cc2ccc(Cl)cc2)c2ccccc12)n1ccnc1 (stereo unspecified)	1.208
Cc1c(Cn2ccnc2)c2cc(Br)ccc2n1Cc1ccccc1Cl	2.397
Cc1c(Cn2ccnc2)c2ccccc2n1Cc1ccc(Cl)cc1	0.474
O=C(CCc1ccccc1)Nc1ccc2oc(-c3ccc(F)cc3)nc2c1	2.127
CCc1ccc(-c2nc3cc(NC(=O)CCc4ccccc4)ccc3o2)cc1	1.813
O=C(Nc1ccc2oc(-c3ccc(F)cc3)nc2c1)SCc1ccccc1	1.813
O=C(Nc1ccc2oc(-c3ccc(F)cc3)nc2c1)c1ccccc1	2.1
CCCCCCCCCCCCCCC[N+](C)(C)[BH2-]C#N	1.724
CCCCCCCCCCC[N+](C)(C)[B-](Br)(Br)C#N	1.591
CCc1ccc(-c2nc3cc(NC(=O)OCc4ccccc4)ccc3o2)cc1	1.477
CC[N+](C)(C)[BH2-]C#N [(CYANOBORANYLIDENE)(ETHYL)DIMETHYLAMINE]	3.649
CCCCCCC(C)(O)C[N+](C)(C)[BH2-]C#N (stereo unspecified)	3.344
O=C(Cc1ccc([N+](=O)[O-])cc1)Nc1ccc2oc(-c3ccc(F)cc3)nc2c1	1.532
Cc1c(C(C)n2ccnc2)c2ccccc2n1Cc1ccc(Br)cc1 (stereo unspecified)	2.404
O=C(Nc1ccc2oc(-c3ccccc3)nc2c1)OCc1ccc(Cl)cc1	1.544
CCc1ccc(-c2nc3cc(NC(=O)SCc4ccccc4)ccc3o2)cc1	2.161
C[N+](C)([BH2-]C#N)CCCCCCCCCC[N+](C)(C)[BH2-]C#N	2.611
CCCCCCCCC[N+](C)(C)[BH2-]C#N [(CYANOBORANYLIDENE)DIMETHYLNONYLAMINE]	2.176
C[N+](C)([BH2-]C#N)CC(O)c1ccccc1 (stereo unspecified)	2.389
CCCCC[N+](C)(C)[BH2-]C#N [(CYANOBORANYLIDENE)DIMETHYLPENTYLAMINE]	2.909
CN(C)c1ccc(-c2nc3cc(NC(=O)CCc4ccccc4)ccc3o2)cc1	1.82

SMILES	p(1/MIC)
C[N+](C)([BH2-]C#N)CCCCCCCCCCCCCC[N+](C)(C)[BH2-]C#N	1.634
O=C(Nc1ccc2oc(-c3ccccc3)nc2c1)OCc1ccccc1	1.505
C[N+](C)(CCCCCCCCCC[N+](C)(C)[B-](Br)(Br)C#N)[B-](Br)(Br)C#N	2.017
C[N+](C)([BH2-]C#N)CC1(O)C=CCC1 (stereo unspecified)	3.142
O=C(Cc1ccccc1)Nc1ccc2oc(-c3ccc(F)cc3)nc2c1	1.82
CCCCCCCCCCC[N+](C)(C)[BH2-]C#N	1.512
CCCCCCCCCCCCC[N+](C)(C)[BH2-]C#N	1.763
C[N+](C)(CCCCCCCCCC[N+](C)(C)[BH-](Br)C#N)[BH-](Br)C#N (stereo unspecified)	2.146
CCc1ccc(-c2nc3cc(NC(=O)OCc4ccc(Cl)cc4)ccc3o2)cc1	1.792
C=CCCCC[N+](C)(C)[BH2-]C#N	1.973
CCCCCCCCCCC[N+](C)(C)[BH-](F)C#N (stereo unspecified)	1.806
C=CCC[N+](C)(C)[BH2-]C#N	2.672
CCCCCCCCCCCC[N+](C)(C)[BH2-]C#N [(CYANOBORANYLIDENE)(DODECYL)DIMETHYLAMINE]	1.785
C[N+](C)(C)[BH2-]C#N [(CYANOBORANYLIDENE)TRIMETHYLAMINE]	3.708
O=C(Nc1ccc2oc(-c3ccccc3)nc2c1)SCc1ccccc1	1.839
O=C(Nc1ccc2oc(-c3ccc(F)cc3)nc2c1)OCc1ccccc1	1.785
CCCCCCCCCC(O)C[N+](C)(C)[BH2-]C#N (stereo unspecified)	2.692
C[N+](C)([BH2-]C(=O)O)CCCCCCCCCC[N+](C)(C)[BH2-]C(=O)O	2.274
CN(C)c1ccc(-c2nc3cc(NC(=O)OCc4ccc(Cl)cc4)ccc3o2)cc1	1.875
Clc1ccc(Cn2cc(Cn3ccnc3)c3ccccc32)cc1	1.924
CCCC[N+](C)(C)[BH2-]C#N [BUTYL(CYANOBORANYLIDENE)DIMETHYLAMINE]	3.553
Clc1ccc(Cn2cc(Cn3ccnc3)c3ccccc32)c(Cl)c1	1.147
C[N+](C)([BH2-]C#N)CCCCCCCCCCCC[N+](C)(C)[BH2-]C#N	1.982
CCCCCCCCCCC[N+](C)(C)[BH-](Br)C#N (stereo unspecified)	1.69

More lines, now with the values ahead:

p(1/MIC)	SMILES
3.17	CCCCCCCCCCCCCCOP(=O)(OCCC#N)OC(Cn1cncn1)(Cn1cncn1)c1ccc(F)cc1F (stereo unspecified)
2.846	CCC(Br)C(=O)OC(Cn1cncn1)(Cn1cncn1)c1ccc(F)cc1F (stereo unspecified)
2.494	CCCCCCCCCCCOP(=O)(OCCC#N)OC(Cn1cncn1)(Cn1cncn1)c1ccc(F)cc1F (stereo unspecified)
3.412	CCCCCCCCCCC(Br)C(=O)OC(Cn1cncn1)(Cn1cncn1)c1ccc(F)cc1F (stereo unspecified)
1.432	Cc1c(Cn2ccnc2)c2ccccc2n1Cc1cc(Cl)ccc1Cl
3.377	O=P(O)(OCCCCCCCCCCCBr)OC(Cn1cncn1)(Cn1cncn1)c1ccc(F)cc1F
3.148	CCCCCCCCCCCOP(=O)(O)OC(Cn1cncn1)(Cn1cncn1)c1ccc(F)cc1F
3.138	CCCCCCCCCCCOP(=O)(OC)OC(Cn1cncn1)(Cn1cncn1)c1ccc(F)cc1F (stereo unspecified)
2.768	CCCC(Br)C(=O)OC(Cn1cncn1)(Cn1cncn1)c1ccc(F)cc1F (stereo unspecified)
1.819	Cc1c(C(C)n2ccnc2)c2ccccc2n1Cc1ccc(F)cc1 (stereo unspecified)
2.616	C=CCCCCCCCCCOP(=O)(OC)OC(Cn1cncn1)(Cn1cncn1)c1ccc(F)cc1F (stereo unspecified)
3.091	CCCCCCCCOP(=O)(OCCC#N)OC(Cn1cncn1)(Cn1cncn1)c1ccc(F)cc1F (stereo unspecified)
3.208	CCCCCCCCCCCCCCOP(=O)(O)OC(Cn1cncn1)(Cn1cncn1)c1ccc(F)cc1F
3.143	CCCCCCCCCCCCCC(=O)OC(Cn1cncn1)(Cn1cncn1)c1ccc(F)cc1F
2.415	Cc1c(Cn2ccnc2)c2cc(Br)ccc2n1Cc1ccccc1F
3.445	C=CCCCCCCCCCOP(=O)(O)OC(Cn1cncn1)(Cn1cncn1)c1ccc(F)cc1F

p(1/MIC)	SMILES
3.374	O=C(OCCCl)OC(Cn1cncn1)(Cn1cncn1)c1ccc(F)cc1F
1.695	Fc1ccc(Cn2cc(Cn3ccnc3)c3ccccc32)c(F)c1
3.172	CC(Br)C(=O)OC(Cn1cncn1)(Cn1cncn1)c1ccc(F)cc1F (stereo unspecified)
2.1	CCCCC(Br)C(=O)OC(Cn1cncn1)(Cn1cncn1)c1ccc(F)cc1F (stereo unspecified)
3.61	CC(=O)OC(Cn1cncn1)(Cn1cncn1)c1ccc(F)cc1F
1.342	O=C(OC(Cn1cncn1)(Cn1cncn1)c1ccc(F)cc1F)C(Br)CCCCCCCCCCBr (stereo unspecified)
2.314	C=CCCCCCCCCCOP(=O)(OCCC#N)OC(Cn1cncn1)(Cn1cncn1)c1ccc(F)cc1F (stereo unspecified)
3.392	N#CCCOP(=O)(OCCCCCCCCCCCBr)OC(Cn1cncn1)(Cn1cncn1)c1ccc(F)cc1F (stereo unspecified)
2.962	CCCCCCCCOP(=O)(OC)OC(Cn1cncn1)(Cn1cncn1)c1ccc(F)cc1F (stereo unspecified)
1.806	O=C(Nc1ccc2oc(-c3ccc(F)cc3)nc2c1)OCc1ccc(Cl)cc1
2.496	Cc1c(Cn2ccnc2)c2ccccc2n1Cc1ccc(F)cc1
2.415	Cc1c(Cn2ccnc2)c2cc(Br)ccc2n1Cc1ccc(F)cc1
1.902	Cc1c(Cn2ccnc2)c2cc(Br)ccc2n1Cc1ccc(Cl)cc1
3.413	CC(=O)Oc1ccccc1C(=O)OC(Cn1cncn1)(Cn1cncn1)c1ccc(F)cc1F
1.117	Fc1ccc(Cn2cc(Cn3ccnc3)c3ccccc32)cc1
1.431	CCCCCCC(Br)C(=O)OC(Cn1cncn1)(Cn1cncn1)c1ccc(F)cc1F (stereo unspecified)
